Assay results published in US12201628B2, “Neuronal modulation” (priority 2013, dated 2025).

How the values were obtained:
IL-4 and IL-1β = assay: Serum cytokine levels (RayBio antibody array, ELISA); type: in vivo, mice; settings: 24 h after CNO; VTA-activated vs control
Procedure: VTA-activated and control mice were treated with CNO. Twenty four hours later, they were anaesthetized with ketamine/xylazine and their blood was collected by cardiac puncture. The blood was allowed to clot at room temperature for at least 30 minutes. Serum was collected by centrifuging the sample at 400 g for 10 min. The serum samples pooled from each experimental group (VTA-activated group and control group) were analyzed for cytokine and chemokine levels using the RayBio custom G-Series mouse cytokine antibody array kit (RayBiotech; Norcross, GA) according to manufacturer's instructions. The panel included: CD30 ligand, Eotaxin-1, Eotaxin-2, IFN-γ, IL-1α, IL-1β, IL-2, IL-3, IL-4, IL-6, IL-9, IL-10, IL-12 p40/p70, IL-12 p70, IL-13, IL-17A, MIP-1α, MIP-1γ, RANTES and TNFα. Murine IL-4 and IL-1β standard ELISA kits (PeproTech; Rocky Hill, NJ) were used as a quantitative validation of the IL-4 and IL-1β levels measured with the antibody array kit.

[1] = tested on: immune populations in the spleen; assay: CyTOF of spleen after VTA DA activation and LPS injection; type: in vivo, mice; settings: spleen 24 h after VTA DA activation and LPS injection; Gq vs control
Procedure: FIGS. 3A-3E. Are graphs showing the effects of VTA DA neurons activation on a numbers of defined immune populations in the spleen as determined by CyTOF. FIG. 3A is an experimental timeline: spleens were collected from control and Gq mice 24 h after VTA DA activation and LPS injection (5 ug/kg). […] The individual ions were counted and then parsed into a flow cytometry file format. This file can be analyzed by traditional flow cytometry software or by SPADE, which allows integrating the complex information. SPADE analysis is composed of several steps: A density-dependent down-sampling of the original data is clustered. Adjacent clusters are drawn in alternating colors. Minimum spanning tree that connects the cell clusters is generated and color-coded. Nodes are colored by the number of cells in each cluster (7-547 cells). This allows visualization of the changes in the various immune populations. Cluster of CD8, CD4, NK B cell and monocytes are indicated.
CyTOF mass cytometry: Single-cell suspensions of cells from the blood/bone marrow/spleen/lymph nodes of the treated mice are stained with monoclonal or polyclonal antibodies, conjugated to metal probes. […]

Which “serum IL-1β level” value (IL-4 and IL-1β) does the source give for `C[N+]1([O-])CCN(C2=Nc3cc(Cl)ccc3Nc3ccccc32)CC1` [CNO, clozapine-N-oxide] here?
Its value is “significantly reduced”.

What about the “serum IL-4 level” value (IL-4 and IL-1β) of the same molecule?
The value was “significantly reduced”.

And the “levels of CD69” value [1]?
Its value is “No change was detected”.
